Reference: patent US12594267B2, “Capsid inhibitors for the treatment of HIV” (Gilead Sciences, Inc., priority 2018, dated 2026)
Read-outs that look alike come from different tables or passages of the source.

Key:
Assay type in all cases: cell-based, HIV-1
WT LAI = experiment: microbe, parasite or virus in culture; conditions: Human immunodeficiency virus 1, MT2, read-out: WT LAI EC50
Description: (§1) The antiviral activity of the compound of Formula (a) was tested against a panel of known HIV-1 mutants resistant to HIV PIs (ATV and DRV), NRTIs (TFV and FTC), NNRTIs (RPV and EFV) or INSTIs (RAL, EVG and DTG) using a cytopathic antiviral assay in MT-2 cells.

NRTI-resistant viruses = conditions: Mutant/WT (LAI) EC50 ratio, MT-2 cells, mean ± s.d. of three experiments
Description: as §1

PI-resistant viruses = experiment: Cytopathic antiviral assay in MT-2 cells, PI-resistant viruses; conditions: Mutant/WT (HXB2D) EC50 ratio, mean ± s.d. of three experiments
Description: as §1, with “cells. The compound of Formula (Ia) was fully active against all tested mutants resistant to PIs (Table 11), NRTIs (Table 12), NNRTIs (Table 13) or INSTIs (Table 14).” for “cells.”

WT HXB2D = experiment: Cytopathic antiviral assay in MT-2 cells, wild type HXB2D; conditions: Human immunodeficiency virus 1, MT2, read-out: WT HXB2D EC50, MT-2 cells, mean ± s.d. of three experiments in triplicate
Description: as §1, with “cells. The compound of Formula (Ia) was fully active against all tested mutants resistant to PIs (Table 11), NRTIs (Table 12), NNRTIs (Table 13) or INSTIs (Table 14).” for “cells.”

NNRTI-resistant viruses = experiment: Cytopathic antiviral assay in MT-2 cells, NNRTI-resistant viruses; conditions: Mutant/WT (HXB2D) EC50 ratio, mean ± s.d. of three experiments
Description: as §1, with “cells. The compound of Formula (Ia) was fully active against all tested mutants resistant to PIs (Table 11), NRTIs (Table 12), NNRTIs (Table 13) or INSTIs (Table 14).” for “cells.”

INSTI-resistant viruses = experiment: Cytopathic antiviral assay in MT-2 cells, INSTI-resistant viruses; conditions: Mutant/WT (HXB2D) EC50 ratio, mean ± s.d. of three experiments
Description: as §1, with “cells. The compound of Formula (Ia) was fully active against all tested mutants resistant to PIs (Table 11), NRTIs (Table 12), NNRTIs (Table 13) or INSTIs (Table 14).” for “cells.”

[1] = INSTI-resistance panel (Table 14)

Row | Compound | EC50 (WT LAI) [nM] | EC50 Fold-Change (NRTI-resistant viruses; 6TAMs) | EC50 Fold-Change (NRTI-resistant viruses; K65R) | EC50 Fold-Change (NRTI-resistant viruses; M184V) | EC50 Fold-Change (PI-resistant viruses; G48V/V82A/L90M) | EC50 Fold-Change (PI-resistant viruses; G48V/V82S) | EC50 Fold-Change (PI-resistant viruses; I50V) | EC50 Fold-Change (PI-resistant viruses; I84V/L90M) | EC50 (WT HXB2D; [1]) [nM] | EC50 (WT HXB2D; PI-resistance panel (Table 11)) [nM] | EC50 Fold-Change (INSTI-resistant viruses; E92Q/N155H) | EC50 Fold-Change (INSTI-resistant viruses; E138K/Q148K) | EC50 Fold-Change (INSTI-resistant viruses; G140S/Q148R) | EC50 Fold-Change (INSTI-resistant viruses; N155H/Q148R) | EC50 Fold-Change (INSTI-resistant viruses; R263K/M50I) | EC50 Fold-Change (INSTI-resistant viruses; Y143R) | further results
1 | COC(=O)N[C@H](C(=O)N[C@@H](Cc1ccccc1)[C@@H](O)CN(Cc1ccc(-c2ccccn2)cc1)NC(=O)[C@@H](NC(=O)OC)C(C)(C)C)C(C)(C)C [ATV, atazanavir] | 4.78 ± 1.26 | 0.5 ± 0.2 | 0.9 ± 0.3 | 0.6 ± 0.2 | 32.5 ± 11.9 | 15.4 ± 3.1 | 3.5 ± 0.4 | 33.1 ± 7.8 | 3.7 ± 1.07 | 4.18 ± 0.46 | 1.0 ± 0.4 | 0.8 ± 0.3 | 1.1 ± 0.5 | 0.9 ± 0.4 | 1.1 ± 0.6 | 0.8 ± 0.2 | EC50 (WT HXB2D; NNRTI-resistance panel (Table 13)): 4.6 ± 1.48 nM; EC50 Fold-Change (NNRTI-resistant viruses; K103N): 0.6 ± 0.3; EC50 Fold-Change (NNRTI-resistant viruses; K103N/Y181C): 0.6 ± 0.3; EC50 Fold-Change (NNRTI-resistant viruses; L100I/K103N): 0.6 ± 0.3; EC50 Fold-Change (NNRTI-resistant viruses; Y181C): 1.8 ± 1.0; EC50 Fold-Change (NNRTI-resistant viruses; Y188L): 0.6 ± 0.3
2 | Nc1nc(=O)n([C@@H]2CS[C@H](CO)O2)cc1F [FTC, emtricitabine] | 2.41 ± 1.16 | 4.1 ± 2.5 | 12.8 ± 2.4 | >20.8 | – | – | – | – | – | – | – | – | – | – | – | – | –
3 | COc1cc2c(cc1Cc1cccc(Cl)c1F)c(=O)c(C(=O)O)cn2[C@H](CO)C(C)C [EVG, elvitegravir] | 2.64 ± 0.9 | 0.6 ± 0.4 | 0.8 ± 0.2 | 1.1 ± 0.7 | 0.8 ± 0.4 | 0.7 ± 0.3 | 1.7 ± 1.0 | 1.0 ± 0.7 | 1.87 ± 0.19 | 2.02 ± 0.88 | >53.5 | >53.5 | >53.5 | 51.0 ± 2.5 | 5.1 ± 3.7 | 2.1 ± 0.2 | –
